Experimental data taken from ChEMBL document CHEMBL1201862, “PubChem BioAssay data set” (2004).
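Exposure lasted 48 hours, with cells grown in 96-well plates and compounds tested at five concentrations. The concentration for 50% growth inhibition is given as GI50.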 Calls of active or inactive are those of the source. No stated cut-off is given here; in the data, active = GI50 up to about 1.1 µM and inactive = higher.

Key:
Assay in all cases: inhibition of tumour cell growth, NCI panel, 48 h
BT-549 = test system: BT-549
CAKI-1 = test system: CAKI-1
EKVX = test system: EKVX
HCT-116 = test system: HCT-116
HCT-15 = test system: HCT-15
HOP-62 = test system: HOP-62
HOP-92 = test system: HOP-92
IGROV-1 = test system: IGROV-1
K562 = test system: K562
MOLT-4 = test system: MOLT-4
Malme-3M = test system: Malme-3M
OVCAR-3 = test system: OVCAR-3
OVCAR-8 = test system: OVCAR-8
SF-268 = test system: SF-268
SK-MEL-28 = test system: SK-MEL-28
SK-OV-3 = test system: SK-OV-3
SN12C = test system: SN12C
UO-31 = test system: UO-31
SR = test system: SR

SMILES | GI50 (BT-549) | GI50 (CAKI-1) | GI50 (EKVX) | GI50 (HCT-116) | GI50 (HCT-15) | GI50 (HOP-62) | GI50 (HOP-92) | GI50 (IGROV-1) | GI50 (K562) | GI50 (MOLT-4) | GI50 (Malme-3M) | GI50 (OVCAR-3) | GI50 (OVCAR-8) | GI50 (SF-268) | GI50 (SK-MEL-28) | GI50 (SK-OV-3) | GI50 (SN12C) | GI50 (UO-31) | GI50 (SR)
CCOc1ccc2nc3nc(O)nc(C)c3c(NCCCN(CC)CC)c2c1 | > 100 µM (inactive) | > 100 µM (inactive) | > 100 µM (inactive) | > 100 µM (inactive) | > 100 µM | > 100 µM (inactive) | > 100 µM (inactive) | > 100 µM (inactive) | > 100 µM (inactive) | > 100 µM (inactive) | > 100 µM (inactive) | > 100 µM (inactive) | > 100 µM (inactive) | > 100 µM (inactive) | > 100 µM (inactive) | > 100 µM (inactive) | > 100 µM (inactive) | > 100 µM (inactive) | 
C=C(C)[C@@H]1CC[C@]2(COC(C)=O)CC[C@]3(C)[C@H](CC[C@@H]4[C@@]5(C)CC[C@H](OC(C)=O)C(C)(C)[C@@H]5CC[C@]43C)[C@@H]12 [BETULIN DIACETATE] | > 50 µM (inactive) |  |  | > 50 µM (inactive) | > 50 µM | > 50 µM (inactive) | > 31.6 µM (inactive) | > 50 µM (inactive) | > 50 µM (inactive) | > 50 µM (inactive) |  | 3.01 µM (inactive) | > 50 µM (inactive) |  | > 50 µM (inactive) | > 50 µM (inactive) | > 50 µM (inactive) | > 50 µM (inactive) | > 50 µM (inactive)
CCc1n[nH]c(=O)n1NC(=O)/C=C\C(=O)O | > 100 µM (inactive) | > 100 µM (inactive) | > 100 µM (inactive) | > 100 µM (inactive) | > 100 µM | > 100 µM (inactive) |  | > 100 µM (inactive) | > 100 µM (inactive) | > 100 µM (inactive) | > 100 µM (inactive) | > 100 µM (inactive) | > 100 µM (inactive) | > 100 µM (inactive) |  | > 100 µM (inactive) | > 100 µM (inactive) |  | > 100 µM (inactive)
NCCC(=O)N[C@@H](Cc1cc(O)c(O)c(SCC(NC(=O)CC[C@H](N)C(=O)O)C(=O)NCC(=O)O)c1)C(=O)O (stereo not given in full) | > 50 µM (inactive) | > 50 µM (inactive) | > 50 µM (inactive) | > 50 µM (inactive) | > 50 µM | 34.4 µM (inactive) | > 50 µM (inactive) | > 50 µM (inactive) | > 50 µM (inactive) | > 50 µM (inactive) | > 50 µM (inactive) | > 50 µM (inactive) |  | > 50 µM (inactive) | > 50 µM (inactive) | > 50 µM (inactive) | > 50 µM (inactive) | > 50 µM (inactive) | 
C[C@@H]1C[C@@]2(O[C@@H]2C)C(=O)O[C@@H]2CCN3CC=C(COC(=O)[C@]1(C)O)[C@H]23 | > 100 µM (inactive) | > 100 µM (inactive) | > 100 µM (inactive) | > 100 µM (inactive) | > 100 µM |  | 10.7 µM (inactive) | > 100 µM (inactive) | > 100 µM (inactive) | > 100 µM (inactive) | > 100 µM (inactive) | > 100 µM (inactive) | > 100 µM (inactive) | > 100 µM (inactive) | > 100 µM (inactive) | > 100 µM (inactive) | > 100 µM (inactive) | > 100 µM (inactive) | 
COc1cc(COC(=O)N2CSCC2C(=O)O)c([N+](=O)[O-])cc1OC (stereo not given) | > 100 µM (inactive) |  | > 100 µM (inactive) | > 100 µM (inactive) | > 100 µM | > 100 µM (inactive) | > 100 µM (inactive) | > 100 µM (inactive) | > 100 µM (inactive) | > 100 µM (inactive) | > 100 µM (inactive) | > 100 µM (inactive) | > 100 µM (inactive) | > 100 µM (inactive) |  | > 100 µM (inactive) | > 100 µM (inactive) | > 100 µM (inactive) | > 100 µM (inactive)
CC12O[C@]3([C@H](C(=O)N4CCOC43C)[C@H]1Cl)[C@H]1O[C@H]12 (stereo not given in full) | > 100 µM (inactive) | > 100 µM (inactive) | > 100 µM (inactive) | > 100 µM (inactive) | > 100 µM | > 100 µM (inactive) | > 100 µM (inactive) | > 100 µM (inactive) | 98.6 µM (inactive) | > 100 µM (inactive) |  | > 100 µM (inactive) | > 100 µM (inactive) | > 100 µM (inactive) | > 100 µM (inactive) | > 100 µM (inactive) | > 100 µM (inactive) | > 100 µM (inactive) | 51.4 µM (inactive)
O=C(O)C1C2CCC(O2)C1C(=O)NCc1cccnc1 (stereo not given) | > 100 µM (inactive) | > 100 µM (inactive) | > 100 µM (inactive) | > 100 µM (inactive) | > 100 µM | > 100 µM (inactive) |  |  |  |  | > 100 µM (inactive) | > 100 µM (inactive) |  |  | > 100 µM (inactive) | > 100 µM (inactive) | > 100 µM (inactive) | > 100 µM (inactive) | > 100 µM (inactive)
COC(=O)/C=C1\C(CO[Si](C)(C)C(C)(C)C)OC(n2ccc(=O)[nH]c2=O)C1O (stereo not given) | 18.7 µM (inactive) | 22.6 µM (inactive) | 8.63 µM (inactive) | 4.4 µM (inactive) | 6.71 µM | 13.2 µM (inactive) | 15.2 µM (inactive) | 20 µM (inactive) | 5.4 µM (inactive) | 8.49 µM (inactive) |  | 21.6 µM (inactive) | 8.95 µM (inactive) | 0.367 µM (active) | 6.25 µM (inactive) |  | 8.57 µM (inactive) | 9.89 µM (inactive) | 6.98 µM (inactive)
Cc1ccnc2c1ccc1nc3ccccc3n12 | 63.5 µM (inactive) | 11.4 µM (inactive) | 1.88 µM (inactive) | 28.1 µM (inactive) |  | 89.7 µM (inactive) | 85.1 µM (inactive) | 25.5 µM (inactive) | > 100 µM (inactive) | > 100 µM (inactive) |  | > 100 µM (inactive) | 28.9 µM (inactive) | 25.1 µM (inactive) |  |  | 61.5 µM (inactive) | 30.6 µM (inactive) | 44.7 µM (inactive)
CC1CCC2(O)C3(C)CC4(O)OC2(C1O)C1(O)C3(O)C(OC(=O)c2ccc[nH]2)C(O)(C(C)C)C41C (stereo not given) | > 100 µM (inactive) | > 100 µM (inactive) | > 100 µM (inactive) | > 100 µM (inactive) | > 100 µM | > 100 µM (inactive) | > 100 µM (inactive) | > 100 µM (inactive) | > 20.9 µM (inactive) |  | > 100 µM (inactive) | > 100 µM (inactive) | > 100 µM (inactive) | > 31.6 µM (inactive) | > 100 µM (inactive) | > 100 µM (inactive) | > 100 µM (inactive) | > 100 µM (inactive) | 
CCOC(=O)c1c(NS(=O)(=O)c2ccccc2)sc2c1CCCC2 | > 100 µM (inactive) | > 100 µM (inactive) | 48.4 µM (inactive) | 37.7 µM (inactive) | 33.7 µM | 46.5 µM (inactive) |  | 54.8 µM (inactive) | 30.8 µM (inactive) | 40.6 µM (inactive) |  | 22.5 µM (inactive) | 56.8 µM (inactive) | 64.9 µM (inactive) |  |  | 66.7 µM (inactive) | 70.5 µM (inactive) | 59.8 µM (inactive)
